The record followed here is patent publication US20140196172A1, “Organelle Targeting Nanocarriers” (Her Majesty the Queen in Right of Canada, as Repre sented …, priority 2011, published 2014).

Experiment [1] concerns F1112 (bovine colonic cell line). Briefly: Uptake of labeled peptides by F1112 cells, photometric cell imaging. Format: cell-based. The settings on record: for Average concentration of labeled peptide measured in cells, F1112: cells exposed to labeled peptide at 17 μM; for Photometric Cell Imaging (average counts/sec) F1112: 1 hr, background about 1×10^5 counts/sec. As to the method: Caco-2 and F1112 cells are cultured in Dulbecco's Modified Eagle Medium (DMEM) containing 10% (v/v) fetal bovine serum (FBS) and 50 μg/ml gentamycin at 37° C. in a 95% humidified atmosphere containing 5% CO2. The cells are grown in Falcon™ […] 75 cm^2 cell culture flasks until they reach confluency, then are detached with 0.25% trypsin and 0.02% EDTA and washed with DMEM.
Preparations used for photometric cell imaging are prepared by adding 1000 cells to a Nunc coverglass chamber (2.5 cm^2). Cells are cultured as described above for 3 to 7 days. The cell monolayers are rinsed three times with epithelial cell saline (pH 7.4).
Varying concentrations of fluoresceinated mTPs (100 μM) are added to epithelial cell saline to obtain a final working volume of 400 μl. Final concentrations added to the Caco-2, F1112 and MG cell monolayers as described above are 17 μM, 9 μM and 4 μM. Cells are incubated with the peptides for 1 hr in the dark at 37° C. in a 95% humidified atmosphere containing 5% CO2. At the end of the incubation period, the cell monolayer is rinsed three times with epithelial cell saline and 500 μl of epithelial cell saline is added.
Uptake of labeled peptides by cells is quantified using a photometric detector/cell-imaging system (PTI). An excitation scan is run to determine if uptake has occurred as indicated by peaks at the appropriate wavelengths and if the amount changes in a dose-dependent manner compared to unlabeled cells. A time-based scan is then performed at the optimal excitation and emission wavelength to quantify total uptake, using about 20 cells/view/replicate.

Experiment [2] relates to chloroplasts of triticale protoplasts. Briefly: qRT-PCR of gfp mRNA, protoplasts transfected with pWCaadA16GFP. Format: cell-based. The settings on record: gfp reporter construct. The source says:
FIG. 20 is a plot showing the level of expression (fold increase, average of 4 replicates) of GFP in triticale protoplasts transfected with the pWCaadA16GFP plasmid in the presence of cTP1 (SEQ ID NO: 6), cTP2 (SEQ ID NO: 7), cTP3 (SEQ ID NO: 8), cTP4 (SEQ ID NO: 9) or cTP5 (SEQ ID NO: 10) compared to the level of expression (fold increase) of the internal control elongation factor 1a (EF1a), as measured by quantitative real time PCR of mRNA levels.
Wheat chloroplast aadA16GFP reporter plasmid (pWCaadA16GFP, FIG. 12) is a 4212 base pair wheat specific plastid transformation vector, which targets insertions into the tml-tmA inverted repeat regions of the Triticum aestivum plastid genome at nucleotides 92850-93727 and 93794-94671 (GenBank accession No. AB042240.3). A multiple cloning site is introduced following the tml target insertion sequence. The selection marker gene is an organelle codon specific aad-gfp fusion gene, which facilitates a dual selection method of spectinomycin resistance through an aadA derivative and visual detection by GFP fluorescence (GenBank accession No. ABX39486; Khan and Maliga, Nat. Biotechnol. (1999 September) 17(9): 910-5). The selection marker gene is driven by the Triticum aestivum plastid genome promoter (psbA) at nucleotides 1282-1153 (GenBank accession No. AB042240.3). The aad-gfp fusion gene is terminated with the rice psbA terminator sequence derived from chloroplast transformation vector pVSR326 nucleotides 4014-4387 (GenBank accession No. AF527485.1).
The dsDNA construct (pWMaadA16GFP for mitochondrial expression or pWCaadA16GFP for expression in chloroplasts) is combined with the mTP (for mitochondrial expression) or cTP (for expression in chloroplasts) in a final volume of 100 μl of CPW solution. For experiments using mTP1 (SEQ ID NO: 1), mTP2 (SEQ ID NO: 2), mTP3 (SEQ ID NO: 3), or mTP5 (SEQ ID NO: 5), peptides (scaled up from 100 ng, at four times the concentration needed to cause a DNA shift in the gel mobility shift assay (Table 7)) are combined with the pWMaadA16GFP construct (5 μg). For experiments using the remaining oTPs, peptides (30 μg) are combined with the appropriate dsDNA construct (1.5 μg). The mixture is incubated for 10 minutes at room temperature, then incubated with isolated triticale mesophyll protoplasts (500 μl, 10^6 protoplasts/ml, prepared as described in Example 2) for 1 h in the dark at room temperature. CPW solution (500 μl) is added and the mixture is incubated in the dark for 24 h. The cells are imaged using confocal microscopy, as described in Example 2, using MitoTracker® Orange staining to visualize mitochondria and chlorophyll autofluorescence to visualize chloroplasts.
cDNA is generated using a First Strand Synthesis kit (Invitrogen). RNA (1 μg) is added to each sample and the manufacturer's protocol for synthesis followed, with the exception that the volume of the reaction mixture is increased from 20 μl to 30 μl. A negRT sample containing all reagents but no RNA is included in the cDNA synthesis as a negative control.
Standard curves are generated for both elongation factor 1a (EF1a) (internal control) and green fluorescent protein (GFP) (test) genes. The EF1a curve is generated by pooling 6 μl of each cDNA sample (excluding the negRT control), then carrying out a serial dilution of 0.5 for 5 more dilutions. […]
Real time PCR reactions are performed using QuantiTect™ SYBR™ Green PCR Master Mix (Qiagen) in a 20 μl reaction volume. […]

Turning to “MWWRRSRTNSLRYT (listed as Arabidopsis thaliana) [mTP4]”, the “Average concentration of labeled peptide measured in cells, F1112” value (“Average concentration of labeled peptide” for short) in experiment [1] is 144 nm. Further, the “Photometric Cell Imaging (average counts/sec) F1112” value came to 250000 counts/sec in experiment [1] (labeled peptide 4 μM), 300000 counts/sec in experiment [1] (labeled peptide 9 μM) and 3500000 counts/sec in experiment [1] (labeled peptide 17 μM).
As to “MSSPPPLFTSCLPASSPSIRRDSTSGSVTSPLR (listed as Arabidopsis thaliana) [cTP5]”, the “GFP expression by chloroplasts confirmed by qRT-PCR” value (shortened to “GFP expression”) in experiment [2] was “GFP is expressed”.
For “MAALIPAIASLPRAQVEKPHPMPVSTRPGLVS (listed as Triticum aestivum) [cTP4]”, the “GFP expression” value in experiment [2] is “GFP is expressed”.
In the case of “MGGCVSTPKSCVGAKLR (listed as Arabidopsis thaliana) [cTP1]”, the “GFP expression” value in experiment [2] was “GFP is expressed”.
MAAWMRSLFSPLKKLWIRMH (Zea mays) [mTP2]: the “Average concentration of labeled peptide” value in experiment [1] is given as 70 nm. Further, the “Photometric Cell Imaging (average counts/sec) F1112” value stood at 450000 counts/sec in experiment [1] (labeled peptide 4 μM), 1800000 counts/sec in experiment [1] (labeled peptide 9 μM) and 1700000 counts/sec in experiment [1] (labeled peptide 17 μM).
Take “MQTLTASSSVSSIQRHRPHPAGRRSSSVTFS (listed as Triticum aestivum) [cTP2]”: in experiment [2], the “GFP expression” value is listed as “GFP is expressed”.
For “MKLLWRLILSRKW (listed as Arabidopsis thaliana) [mTP3]”, the “Average concentration of labeled peptide” value in experiment [1] was 53 nm. Also, the “Photometric Cell Imaging (average counts/sec) F1112” value in experiment [1] (labeled peptide 4 μM) turned out to be 350000 counts/sec; in experiment [1] (labeled peptide 9 μM), 1100000 counts/sec; in experiment [1] (labeled peptide 17 μM) it was 1300000 counts/sec.
In the same order, the values of “MLFRLRRSVRLRGLLA (listed as Arabidopsis thaliana) [mTP5]” are 60 nm, 440000 counts/sec, 2000000 counts/sec and 1600000 counts/sec.
Taken in the same sequence, the figures for “MFSYLPRYPLRAASARALVRATRPSYRSALLRYQ (listed as Triticum aestivum) [mTP1]” were 49 nm, 330000 counts/sec, 560000 counts/sec and 1200000 counts/sec.
